# Assay results from patent publication US20120183493A1, “NOVEL POLYMERS” (PharmaPatents Global Ltd., priority 2009, published 2012).
# Where two headings read alike, the source gives them in different places.
# What was measured:
# [1] = test system: fibroblasts from human hypertrophic scars; details: cited from earlier work; for proliferation of fibroblasts derived from hypertrophic scars: compound alone; for effect on AT II-stimulated increase in DNA synthesis: cultured fibroblasts, stimulation with AT II
# [2] = Solubility of the purified solid in organic solvents; assay type: physicochemical
# Description: (§1) 4 g of captopril in 15 ml of toluene with 0.5 g of Novozyme lipase B from Candida antartica was stirred in a 100 ml round bottom flask fitted with a drying tube (containing 3 Å molecular sieves and indicator silica gel) for 48 hours at 110° C. using a hotplate and magnetic stirrer. 50 ml of THF was then added and the enzyme was removed by filtration.
# as §1, with “captopril lactone” for “captopril”
# [3] = test system: hypertrophied scars; details: topical application, animal model of pathologic scarring; cited from earlier work
# [4] = test system: guinea pig gingival fibroblast cells; details: cited from earlier work
# [5] = test system: keloid scar; details: cited from earlier work
# [6] = test system: experimental hepatic fibrosis; details: rats; cited from earlier work
# [7] = test system: dermal healing; details: by reducing fibrosis and improving collagen remodelling; cited from earlier work
# [8] = phenytoin- or nifedipine-induced gingival fibroblasts
compound,measurement,setting,value
Cc1cc(Cn2cnc3c2C[C@@H](C(=O)O)N(C(=O)C(c2ccccc2)c2ccccc2)C3)ccc1N(C)C [PD123319],proliferation of fibroblasts derived from hypertrophic scars,[1],did not influence
same,effect on AT II-stimulated increase in DNA synthesis,[1],augmented
C[C@@H]1CSC(=O)[C@@H]2CCCN2C1=O [captopril lactone],solubility in THF,[2],freely soluble
same,solubility in chloroform,[2],freely soluble
same,solubility in methanol,[2],freely soluble
C[C@H](CS)C(=O)N1CCC[C@H]1C(=O)O [captopril],solubility in THF,[2],freely soluble
same,solubility in chloroform,[2],freely soluble
same,solubility in methanol,[2],freely soluble
same,formation of hypertrophied scars,[3],prevented the formation of hypertrophied scars
same,development of induced proliferation,[4]; [8],inhibited the development of proliferation
same,immunostaining intensities of immunoreactive angiotensin II,[4]; [8],reduced these enhanced immunostaining intensities to control levels
CCOC(=O)[C@H](CCc1ccccc1)N[C@@H](C)C(=O)N1CCC[C@H]1C(=O)O [enalapril],keloid scar outcome,"[5]; first patient (co-author), 10 mg once daily",rapidly improved
same,keloid scar outcome,"[5]; person with diabetes, same low dose, after six months of therapy",marked improvement
CCC[C@H](N[C@@H](C)C(=O)N1[C@H](C(=O)O)C[C@@H]2CCCC[C@@H]21)C(=O)OCC [perindopril],progression of experimental hepatic fibrosis,[6],ameliorate progression
O=C1NC(=O)C(c2ccccc2)(c2ccccc2)N1 [phenyloin],proliferation of gingival fibroblast cells,[4]; guinea pig gingival fibroblast cells,induced proliferation
CCCCC(=O)N(Cc1ccc(-c2ccccc2-c2nnn[nH]2)cc1)[C@H](C(=O)O)C(C)C [valsartan],proliferation of fibroblasts derived from hypertrophic scars,[1],did not influence
same,effect on AT II-stimulated increase in DNA synthesis,[1],inhibited
same,progression of experimental hepatic fibrosis,[6],ameliorate progression
"Ang(1-7): angiotensin peptide Ang(1-7) (DRVYIHP; Angiotensin 1-7; UniProt P01019 25-31, looked up, fragment)",dermal healing following wounding,[7],accelerate dermal healing
